{"source": "patent US8293528B2", "about": "“Peptide compositions and their use in particular in the preparation of pharmaceutical compositions active against the hepatitis C virus” (priority 2002, dated 2012)", "key": {"[1]": {"system": "blood cells from 3 patients infected by the hepatitis C virus of genotype 1 and having an HLA of type HLA-A2+", "details": "ELISPOT, 48 hours, positive if more than 20 spots per well", "method": "The ability of blood cells from 3 patients infected by the hepatitis C virus of genotype 1 and having an HLA of type HLA-A2+ to produce gamma-interferon cytokines and interleukin-10, in response to two peptides predicted by software developed by bioMerieux (Centre d'Immunologie de Pierre Fabre) to bind to the HLA-A2 molecule was tested.\nThe assay of these cytokines reflects the ability of the peptides to induce immune responses to cell mediation, either of type 1 (gamma interferon), or of type 2 (interleukin-10)\nAfter 48 hours of incubation at 37° C., a period during which the cells specific to the peptides will locally produce cytokines which will bind to the specific antibodies, anti-gamma interferon or anti-interleukin-10 antibodies, alkaline phosphatase coupled to avidine and the alkaline phosphatase substrate (NBT/BCIP) were added.\nThe violet-blue spots, which represent each gamma-interferon or interleukin-10-producing cell were counted, using Zeiss's ELISPOT automated reader (KS Elispot) and only considered positive when the number of spots per well was greater than 20."}, "[2]": {"system": "Mice transgenic for the molecule HLA.A2.1", "assay": "ELISPOT after immunization of transgenic mice with predicted epitopes", "format": "in vivo", "details": "three individual mice; two injections of epitope 60 μM + T-helper peptide in IFA; two weeks after last immunization", "method": "Mice transgenic for the molecule HLA.A2.1 and devoid of murine class 1 molecules (Pascolo S., et al., 1997, J. Exp Med., 185: 2043-2051) were immunized with the FLL and ILA epitopes predicted as being class I epitopes restricted by the molecule HLA.A2.1.\nIn order to do this, the mice were immunized in the base of their tails with a peptide mixture containing one of the above epitopes (60 μM) and the T-helper peptide (Lone, Y. C. et al., (1998), J. Immunother. 21:283-294) (60 μM) emulsified in incomplete Freund's adjuvant (Sigma St Louis, Mo.). The mice received two injections with an interval of two weeks and the immune responses were analyzed two weeks after the last immunization as indicated in Example 1 (Elispot)."}, "HLA-A2.1-transgenic mice": {"system": "HLA-A2.1-transgenic mice", "assay": "CTL test after immunization with peptides/compositions/epitopes", "format": "in vivo", "details": "FIG. 10; 18 nmoles of D peptide versus 60 nmoles of ALY epitope, ALY epitope as target", "method": "In order to do this, 2 sub-cutaneous injections were administered into the base of the tail of each mouse, with an interval of 15 days, of a mixture containing 18 nmoles of peptide of the invention and 18 nmoles of the HBV core helper peptide in incomplete Freund's adjuvant (IFA, Brinster et al., Hepatology 2001) or containing 60 nmoles of epitope of the invention and 60 nmoles of the helper peptide in IFA.\nThe control mice received only the helper peptide in IFA.\nFifteen days after the 2nd injection, the cell response was analyzed by isolating the spleen cells (splenocytes) of mice and a CTL test and an ELISPOT test were carried out as follows:\nFor the CTL test, these splenocytes were cultured in 24-well plates in the presence of 5 μM of the peptide or epitope of interest and 10 U of recombinant murine interleukin-2 (Brinster et al., Hepatology 2001) per ml in alpha minimum essential medium (αMEM) for 5 days. […] The specific cytotoxic activity of the effective cells was determined by measuring, after 4 hours of incubation with the target cells, the Cr^51 released following the lysis of the target cells using a γ-Cobra II (Packard, Rungis, France) counting device. The spontaneous and maximum release from wells containing either the medium alone, or the lysis buffer (HCl 1N) were determined. […]"}}, "note": "Values joined by “and” are separate entries in the source; they are usually repeats but may differ in a detail not shown here. Equal values may be shown once.", "data": [{"substance": "FLATCVNGV", "values": [{"measurement": "production of gamma interferon", "setting": "[1]", "result": "little if any production"}, {"measurement": "production of interleukin-10", "setting": "[1]", "result": "little if any production"}]}, {"substance": "ILAGYAGAGV", "values": [{"measurement": "Number of spots/10^6 cells (gamma-interferon-producing cells)", "setting": "[2]", "result": "5 spots/10^6 cells and 2 spots/10^6 cells and 0 spots/10^6 cells"}]}, {"substance": "D peptide: D peptide of sequence SEQ ID NO: 176, in NS5b between positions 2573 and 2601 of the viral polyprotein", "values": [{"measurement": "lysis effectiveness", "setting": "HLA-A2.1-transgenic mice", "result": "identical lysis effectiveness"}]}, {"substance": "LLGCIITSL", "values": [{"measurement": "production of gamma interferon", "setting": "[1]", "result": "significant production of gamma interferon in 2 of the 3 patients"}, {"measurement": "production of interleukin-10", "setting": "[1]", "result": "significant production"}]}]}
